Experimental findings from the pKa sets of Baltruschat and Czodrowski (2020) are described below.

Molecule `NC(Cc1c[nH]c2ccccc12)C(=O)NC(Cc1ccccc1)C(=O)O` (centres undefined) displayed a pKa of 3.18.

As to `COC1CC(OC2C(C)C(O)OC(C)C(C)C(O)C(C)C(=O)C3(CO3)CC(C)C(OC3OC(C)CC(N(C)C)C3O)C2C)OC(C)C1O` (centres undefined), the pKa amounted to 8.84.

`CN(C)CCOC1(c2ccccc2)CC2CCC1(C)C2(C)C` (centres undefined) came in with a pKa of 9.61.

In the case of `CCN(CC)CCOC(=O)c1ccc(N)cc1`, the pKa was 9.04.

`CCOC(=O)[C@H](CCc1ccccc1)N[C@@H](C)C(=O)N1CCC[C@H]1C(=O)O`: the pKa came to 2.92.

`CCN(C)C(=O)Oc1cccc(C(C)N(C)C)c1` (centres undefined) displayed a pKa of 8.8.

In turn, `COc1ccc2c3c1O[C@H]1[C@@H](O)C=C[C@H]4[C@@H](C2)NCC[C@@]341` yielded a pKa of 9.23.

`COc1ccccc1OCCNCC(O)COc1cccc2[nH]c3ccccc3c12` (centres undefined) gave a pKa of 7.97.

`CC(C)(C)NCC(O)COc1cccc2c1C[C@H](O)[C@H](O)C2` (some centres undefined) registered a pKa of 9.69.

With `CC1(C)S[C@@H]2[C@@H](NC(=O)[C@H](N)c3ccc(O)cc3)C(=O)N2[C@H]1C(=O)O`, the pKa is 2.6.

The molecule `CN(C)CCCOc1nn(Cc2ccccc2)c2ccccc12` came in with a pKa of 9.27.

As for `CC(Cc1ccc(C(C)(C)C)cc1)CN1CC(C)OC(C)C1` (centres undefined), the pKa turned out to be 7.34.

Molecule `CCC1OC(=O)CC(O)CC(OC2OC(C)CC(N(C)C)C2O)C(CC=O)CC(C)C(=O)C=CC2OC2C1C` (centres undefined) gave a pKa of 8.79.

In turn, `CC(C(=O)O)c1ccc(-c2ccccc2)c(F)c1` (centres undefined) showed a pKa of 4.03.

Turning to `COC1C(OC(C)=O)CC(=O)OC(C)CC2OC2/C=C/C(=O)C(C)CC(CC=O)C1OC1OC(C)C(O)C(N(C)C)C1O` (centres undefined), the pKa was 8.44.

For the molecule `CC[C@H]1OC(=O)[C@@H](C)[C@H](O[C@@H]2C[C@](C)(OC)[C@@H](O)[C@@H](C)O2)[C@@H](C)[C@@H](O[C@@H]2O[C@H](C)C[C@@H](N(C)C)[C@@H]2O)[C@](C)(O)C[C@@H](C)/C(=N/OCOCCOC)[C@@H](C)[C@@H](O)[C@]1(C)O`, the pKa was 9.27.

On to `CN/C(=C\[N+](=O)[O-])NCCSCc1ccc(CN(C)C)o1`, for which the pKa amounted to 8.31.

As to `Cc1cc(=O)oc2cc(C3OC(C(=O)O)C(O)C(O)C3O)ccc12` (centres undefined), the pKa is 2.82.

The molecule `C=CCOc1ccccc1OCC(O)CNC(C)C` (centres undefined) displayed a pKa of 9.57.

As for `CC(C)(C)NCC(O)COc1ccccc1C1CCCC1` (centres undefined), the pKa came out at 9.92.

In turn, `NC(Cc1c[nH]c2ccccc12)C(=O)NC(Cc1c[nH]c2ccccc12)C(=O)O` (centres undefined) showed a pKa of 3.38.

As to `CC[C@H]1OC(=O)[C@@H](C)[C@H](O[C@H]2C[C@](C)(OC)[C@H](O)[C@@H](C)O2)[C@@H](C)[C@@H](O[C@@H]2O[C@H](C)C[C@@H](N(C)C)[C@@H]2O)[C@](C)(O)C[C@@H](C)C(=O)[C@@H](C)[C@@H](O)[C@]1(C)O`, the pKa came to 8.8.

As for `CN(C)CCC=C1c2ccccc2CCc2ccccc21`, the pKa was 9.49.

`CC(C)NCC(O)COc1ccc(COCCOC(C)C)cc1` (centres undefined): the pKa turned out to be 9.57.

In turn, `CCC(=O)OC(Cc1ccccc1)(c1ccccc1)C(C)CN(C)C` (centres undefined) had a pKa of 9.06.

`CCN(CC)C(=O)Nc1ccc(OCC(O)CNC)c(C(C)=O)c1` (centres undefined) registered a pKa of 9.66.

Molecule `O=C1CC2(CCCC2)CC(=O)N1CCCCN1CCN(c2ncccn2)CC1` displayed a pKa of 7.6.

With `CO[C@H]1[C@@H](O[C@@H]2O[C@H](C)[C@@H](O[C@H]3C[C@@](C)(O)[C@@H](O[C@@H](O)CC(C)C)[C@H](C)O3)[C@@H](N(C)C)[C@H]2O)[C@@H](CCO)C[C@@H](C)[C@H](O)CC[C@@H]2O[C@H]2C[C@@H](C)O[C@@H](O)C[C@H]1O[C@H](C)O`, the pKa was determined as 7.61.

For the molecule `CC(C)n1c(/C=C/[C@H](O)C[C@H](O)CC(=O)O)c(-c2ccc(F)cc2)c2ccccc21`, the pKa was determined as 4.31.

The molecule `CC(NC(CCc1ccccc1)C(=O)O)C(=O)N1CCCC1C(=O)O` (centres undefined) displayed a pKa of 7.84.

Turning to `CC(C)NCC(O)COc1cccc2[nH]c3ccccc3c12` (centres undefined), the pKa was 9.52.

`CC(=O)Oc1c(C)cc(OCC(O)CNC(C)C)c(C)c1C` (centres undefined): the pKa is 9.54.

Molecule `COc1ccc([C@@H]2Sc3ccccc3N(CCN(C)C)C(=O)[C@@H]2OC(C)=O)cc1` yielded a pKa of 8.02.

For the molecule `CN[C@H]1C(O)O[C@H](CO)[C@@H](O)[C@@H]1O` (some centres undefined), the pKa turned out to be 9.6.

As for `CC(C)(C)c1ccc(C(O)CCCN2CCC(C(O)(c3ccccc3)c3ccccc3)CC2)cc1` (centres undefined), the pKa was determined as 9.86.

The molecule `CCC1OC(=O)CC(O)C(C)C(CC=O)(OC2OC(C)CC(N(C)C)C2O)CC(C)C(=O)C=CC(C)=CC1C` (centres undefined) yielded a pKa of 8.83.

Molecule `CCCN(CCC)S(=O)(=O)c1ccc(C(=O)O)cc1` returned a pKa of 3.01.

Molecule `N#Cc1ccc2c(c1)N(CCCCN1CCC(O)CC1)c1ccccc1S2` registered a pKa of 8.76.

Regarding `NC(CC(=O)O)C(=O)O` (centres undefined), the pKa was 9.67.

The molecule `CCC1OC(=O)CC(O)C(C)C(OC2OC(C)C(OC3CC(C)(O)C(O)C(C)O3)C(N(C)C)C2O)C(CC=O)CC(C)C(=O)C=CC(C)=CC1COC1OC(C)C(O)C(OC)C1CC` (centres undefined) showed a pKa of 7.73.

The molecule `CCCCC[C@H](O)/C=C/[C@H]1[C@H](CCCCCCC(=O)O)C(=O)C[C@@H]1O` yielded a pKa of 4.87.

As for `CCC1OC(=O)CC(O)C(C)C(OC2OC(C)C(O)C(N(C)C)C2O)C(CC=O)CC(C)C(=O)C=CC(C)=CC1COC1OC(C)C(O)C(OC)C1CC` (centres undefined), the pKa worked out at 8.36.

`CC(C)(C)NC[C@H](O)COc1nsnc1N1CCOCC1` registered a pKa of 9.53.

In turn, `CCCCC[C@H](O)/C=C/[C@H]1[C@H](C/C=C/CCCC(=O)O)C(=O)C[C@@H]1O` displayed a pKa of 4.77.

Usually pKa stands for the pH at which an ionisable group is half protonated.
